From patent US20020137141A1, “Short peptides from the 'A-region' of protein kinases which selectively modulate protein kinase activity” (Children's Medical Center Corporation, priority 2000, published 2002)
Where no end group is shown, it is not given here.

How the values were obtained:
[1] = system: Erk1; test: Western blot, phosphorylation of downstream substrate Erk1; format: cell-based, rat; settings: dose dependent, compared with insulin, FIG. 10
Experimental: (§1) All experiments were carried out with H4 cells (Rat hepatoma cell line).Cells were pre-incubated with the compound K094A107 comprising an IRK-derived peptide (SEQ ID NO: 102)(10mM) or the corresponding controls for 3 hours ( one control was control -no treatment vehicle only, the second control was an irrelevant peptide derived from a non-A-region of a kinase), and with human recombinant insulin (100 nM), for 5 minutes. The cells were then lysed and cell lysates were subjected to Western Blot analysis followed by detection with ECL.
(§2) The membrane was incubated overnight with a primary polyclonal Anti-PhosphoPKB (phospho-serine 473 PKB)Ab, or with an antibody for IRK and then, after 3 washes with TBST, with secondary HRP antibody was added for 1 hour. In the second gel the membrane was incubated overnight with a primary monoclonal PhosphoTyrosine Kinase (PY99) Ab that labels phosphorylated tyrosine, and then after 3 washes with TBST, a secondary antibody was added for 1 hour.
(§3) A similar experiment was conducted with the difference being that the substrates tested were the substrates of the kinase associated signal transduction that are more downstream in the pathway: Erk1, and p38-MAP.

[2] = system: IRK; test: Western blot, phosphorylation of IRK in H4 cells; format: cell-based, rat; parameters: dose or concentration left out as unconfirmed; settings: pre-incubated 3 hours with compound, FIG. 9
Experimental: as §1, §2

[3] = system: adipose cells; test: Glucose uptake (3H-deoxy glucose) in fresh rat adipocytes; format: cell-based; settings: for glucose uptake: 10 μM compound, fresh adipocytes, without insulin, vs control (vehicle)
Experimental: To 3 ml of KRBH buffer with 10 mg collagenase, 3g epididymal fat pad (from 2-3 male rats lightly ether anesthesised and then decapitated) was introduced. The fat was cut up with scissors. The pieces of fat were swirled and shaken in the collagenase solution in a 37° C. water bath, set at 100-150 repetitions/minute, for approximately 1 hour with swirling every 15 minutes while digesting and every 5 minutes towards the end. About 6 ml of buffer was then added to the vial. The content of the vial was gently squeezed through a 250 μ nylon mesh into a 50 ml plastic tube. The residual fat tissue was washed (the total volume for each wash was 15 ml): the tube was centrifuged whereby the adipose cells floated at the top of the liquid. The buffer was removed using a syringe with polyethylene capillary. Buffer was added to get 15 ml and clumps of adipose cells were broken up by gently mixing up and down. This procedure was repeated for a total of 4 centrifugations: 3 centrifugations at 1000 rpm with the last centrifugation at 2000 rpm. At this point, the buffer was removed. Fresh buffer was added to the cell suspension to form a cytocrit of 5-10%. The cells were rolled at 10 rpm at 37° C. for 1 hour.
50 μl 0.1% BSA in PBS was placed with compounds comprising IRK-derived peptides (final concentrations: 0.1-50 μM) or the peptide-vehicle in each 2 ml plastic tube in duplicates. 950 μl aliquots of the cell suspension were added to the tubes. After incubation for 1 hour at 37° C. in a roller (10 rpm), 200 ul of insulin was added to certain tubes to get final concentrations of 2.5-1000 uU/ml and than 200 μl of KRBH buffer containing 3H—Deoxy Glucose (approx. 1200 dpm/μl) was added to each tube. After 30 minutes incubation with the 3H-DOG and insulin at 37° C., 200 μl aliquots were transferred to microcentrifuge tubes containing 200 μl Dinonyl phthalate in duplicates. Cells were rapidly separated from the aqueous buffer by centrifugation at 10,000 g for 60 sec. The cells were isolated in the top layer of the dinonyl phthalate phase. The upper part of the tube (which contains the cells) was cut and transferred to scintillation tube. 4 ml of scintillation liquid was added.
Cell associated radioactivity was counted in a liquid scintillation beta counter.
Glucose-uptake was measured in fresh adipocytes, incubated with or without insulin (10 μ/ml) as described above, in the absence (vehicle) or the presence of 10 μM of a compound K094A107 (“107”) SEQ ID NO: 102; or K094A205 (“205”) (SEQ ID NO: 123), which was kept in a reducing environment (5 to 25 μM DTT) As a comparison the glucose uptake with insulin alone was determined.

[4] = system: PKB; test: Western blot, phosphorylation of PKB in H4 cells; format: cell-based, rat; parameters: dose or concentration left out as unconfirmed; settings: pre-incubated 3 hours with compound, phospho-serine 473, FIG. 9
Experimental: as §1, §2

[5] = system: IRK substrates; test: Western blot of FIG. 10 as worded in the figure legend; format: cell-based, rat; settings: FIG. 10 legend
Experimental: as §1, §3

[6] = system: p38-MAP; test: Western blot, phosphorylation of downstream substrate p38-MAP; format: cell-based, rat; settings: dose dependent, compared with insulin, FIG. 10
Experimental: as §1, §2, §3

[7] = system: male Sabra rats; test: Blood glucose in streptozotocin-induced diabetic rats; format: in vivo, rat; settings: 10 mg/animal I.P., insulin 0.125 units/animal one hour later
Experimental: Diabetes was induced in male Sabra rats (150-200 gr) by I.P. injection of streptozotocin (Sigma, S0130) 60 mg/Kg dissolved in ph 4.5 saline (Biochemical and biophysical research comunications 197(3): 1549-1555 (1993)), which is known to destroy insulin-secreting pancreatic cells. After 2-7 days the rats were all diabetic, as determined by blood glucose level above 200 mg/dl which was measured with glucometer.
12 rats were divided into 3 groups, with homogenic blood glucose level, each consisting of 4 animals
Group I was administered with K094A107 (SEQ ID NO: 102) 10 mg/animal (I.P.) followed by administration of insulin 0.125 units/animal (low concentration of insulin that nearly doesn't give any significant decrease in blood glucose level) one hour later.
Group II was administered with K094A205 (A-region in SEQ ID NO: 123) 10 mg/animal (I.P.) followed by insulin 0.125 units/animal one hour later.
Group III served as control and was administered I.P. with vehicle (NAC/DMSO-DIDV) followed by insulin 0.125 units/animal one hour later.

[8] = system: neural crest cells; test: Emigration of neural crest cells from explanted neural primordia; format: cell-based, quail
From the text: The procedure for explants of neural primordia is described in greater detail in Sela-Donefeld and Kalcheim (Development, 125(21): 4749-4762 (1999)), the teaching of which was incorporated herein by reference.
The trunk region of 16 somite-old quail embryos was separately sectioned at the level of the segmental plate plus the last 2 epithelial somite pairs. Neural primordia consisting of the neural tube and premigratory neural crest cells were isolated from adjacent tissues with 25% pancreatin in PBS, transferred to PBS supplemented with 5% newborn calf serum to stop enzymatic activity and washed in serum-free culture medium prior to explanation. The neural primordia were then explanted onto multi-well chamber slides that were pre-coated with fibronectin (50 μg/ml) for 1 hour. The neural primordia were cultured in 50 μl of either serum-free CHO—S-SFMII medium (GibcoBRL, USA) or condition medium of noggin producing-CHO cells, in the absence or presence of the tested compound, in a final concentration of 5 μM and incubated in a humid chamber for 24 hours. At the end of the incubation, the primordia were gently washed with PBS and fixed with Bouin's fluid, washed 3 times with PBS, dried and covered.

K094A107: compound comprising an IRK A-region derived peptide, N-myristylated and C-amidated (GGFTCHHVVRL-NH2; not fully specified (N-terminus))
phosphorylation of ERK1 [1]: increase the phosphorylation of ERK1 and p38-MAP in a dose dependent manner
phosphorylation of IRK [2]: able to increase phosphorylation
glucose uptake in combination with insulin ([3]; 10 μM compound in the presence of 10 μU/ml insulin): synergistic
glucose uptake [3]: increase glucose uptake levels beyond the level of control glucose uptake
glucose uptake, dose dependence ([3]; different concentrations of the compound (FIG. 6B)): induce glucose uptake in a dose-dependent manner
phosphorylation of PKB [4]: able to increase phosphorylation
phosphorylation of IRK substrates [5]: decrease of phosphorylation of IRK substrates, in a dose dependent manner
phosphorylation of p38-MAP [6]: increase the phosphorylation of ERK1 and p38-MAP in a dose dependent manner

K094A205: compound comprising IRK A-region derived sequence, kept in a reducing environment (GGFTCHHVVRL; IRK)
time at which effect of a single administration on blood glucose was still notable [7]: ≥ 24 h
glucose blood levels ([7]; measured for 24 hours, vs vehicle plus insulin): marked reduction
glucose uptake [3]: increase glucose uptake levels beyond the level of control glucose uptake

K098A100: compound comprising ALK-3-derived A-region peptide (GLMRHENILGF; Alk3)
neural crest migration in the presence of noggin ([8]; 5 μM compound, 24 hours, condition medium of noggin producing-CHO cells): overcomes this inhibition and induces neural crest migration
number of migrating neural crest cells ([8]; 5 μM compound, 24 hours, serum-free medium, absence of noggin): the number of migrating cells is higher

B1: Noggin: specific inhibitor of BMP-4; condition medium of noggin producing-CHO cells (protein, UniProt Q13253 28-232, looked up)
Noggin: QHYLHIRPAPSDNLPLVDLIEHPDPIFDPKEKDLNETLLRSLLGGHYDPGFMATSPPEDRPGGGGGAAGGAEDLAELDQLLRQRPSGAMPSEIKGLEFSEGLAQGKKQRLSKKLRRKLQMWLWSQTFCPVLYAWNDLGSRFWPRYVKVGSCFSKRSCSVPEGMVCKPSKSVHLTVLRWRCQRRGGQRCGWIPIQYPIISECKCSC
modifications: CHO conditioned medium
notes: condition medium of noggin producing-CHO cells
neural crest migration ([8]; noggin alone, no compound): blocks the neural crest migration
